Test results as given in patent US4973545A, “Photographic couplers with aryloxysilyl groups” (Eastman Kodak Company, priority 1988, dated 1990).

How the values were obtained:
Assay type in all cases: physicochemical
[1] = Solubility of the coupler in di-n-butylphthalate coupler solvent (dye dispersibility)
From the text: (§1) In the following Examples, Couplers 1 to 6 are as defined above. Comparison Couplers C-1 to C-6 have the same structures as Couplers 1 to 6, respectively, except that the silyl group is replaced by a hydrogen atom. For example, Coupler C-1 has the structure depicted by Formula I wherein Q=C1 and R=H.

[2] = Dye stability testing: dark keeping, dark/wet fade; conditions: dye image from coupler, dark oven, 60° C., 70% relative humidity, fractional density change at absorption maximum
Method: (§2) Each coupler of the invention and each comparison coupler was dissolved in half its weight of tricresylphosphate as the coupler solvent using 2-(2-butoxyethoxy)ethyl acetate as the auxiliary solvent. The coupler was dispersed in a gelatin solution and the auxiliary solvent was removed by evaporation under reduced pressure.
(§3) Experimental photographic coatings were prepared by coating a cellulose acetate film support with a photosensitive layer comprising a dispersion of the coupler as formulated above coated at a laydown of 1.04 mmol m^-2, a silver chlorobromide emulsion at 1.61 gm^-2 Ag, gelatin at 2.42 gm^-2 and a hardener at 0.06 gm^-2. An overcoat containing gelatin at 1.5 gm^-2 was applied to the photosensitive layer.
(§4) The dried experimental coating was then slit and chopped into test strips.
(§5) The test strips were exposed through a neutral density step-wedge test object. The strips were then processed through a standard C41 processing cycle as described in the British Journal of Photographic Annual 1977, pages 204-5. The processed strips were then dried to give stepped dye images.
(§6) Test strips were exposed as above through a step-wedge test object and appropriate filters to give to give an optical density of about 1.0. The strips were processed using the standard conditions described above and samples cut from the dye image step with density closest to 1.0. Visible absorption spectra (normalized to 1.0 density) were obtained using a spectrophotometer.
Dye sample patches having a density of about 1.0 were prepared as for spectrophotometric testing and their absorption spectram measured as above.
[…] The spectrophotometric curves of the samples were then remeasured and the degree of fade quoted as the fractional decrease in density at the absorption maximum relative to the initial density prior to fading. The results are presented as dark/wet fade data.
as §1

[3] = Spectrophotometric testing: dye hue (λmax and half-bandwidth); conditions: dye image, density about 1.0, C41 processing
Method: as §2, §3, §4, §5, §6
Dye hues are expressed in terms of the wavelength corresponding to the maximum absorption peak (λmax) and the half-bandwidth (HBW) calculated from the spectrophotometric curves.
as §1

Row | SMILES | Solubility ([1]; 80 mg in 0.05 ml di-n-butylphthalate, 1 min on steam bath at 80° C.) | Solubility ([1]; 80 mg in 0.1 ml di-n-butylphthalate, 1 min on steam bath at 80° C.) | Solubility relative to Coupler C-1 ([1]; compared with Coupler C-1 under these conditions (di-n-butylphthalate, steam bath 80° C.)) | Dark/Wet Fade, 1 wk [2] | Dark/Wet Fade, 3 wk [2] | Dark/Wet Fade [2] | HBW (half-bandwidth) of dye absorption [3] [nm] | λmax of dye [3] | Solubility ([1]; 20 mg in 1 ml di-n-butylphthalate, 2 min on steam bath at 80° C.) | Solubility ([1]; 40 mg in 1 ml di-n-butylphthalate, 6 min on steam bath at 80° C.) | Solubility ([1]; 100 mg in 1 ml di-n-butylphthalate, 6 min on steam bath at 80° C.)
1 | CCCCCCCCCCC(Oc1ccc(S(=O)(=O)c2ccc(O[Si](C)(C)C(C)(C)C)cc2)cc1)C(=O)Nc1ccc(CCCc2n[nH]c3c(Cl)c(C)nn23)cc1 (stereo not drawn) [Coupler 1] | soluble | soluble | greater than ten times more soluble | +0.02 | 0.00 | +0.01 | 86.5 | 548.5 | – | – | –
2 | CCCCCCCCCCCCC(Oc1ccc(O[Si](C)(C)C(C)(C)C)c(C(C)(C)C)c1)C(=O)Nc1ccc(Cl)c(NC2=NN(c3c(Cl)cc(Cl)cc3Cl)C(=O)C2)c1 (stereo not drawn) [Coupler 3] | – | – | – | -0.02 | -0.09 | -0.04 | 78.5 | 539.5 | – | – | –
3 | CCCCCCCCCCC(Oc1ccc(S(=O)(=O)c2ccc(O[Si](C)(C)C(C)(C)C)cc2)cc1)C(=O)Nc1ccc(Cl)c(NC2=NN(c3c(Cl)cc(Cl)cc3Cl)C(=O)C2)c1 (stereo not drawn) [Coupler 4] | – | – | – | – | – | – | 84.5 | 541.5 | – | – | –
4 | CCCCCCCCCCC(Oc1ccc(S(=O)(=O)c2ccc(O)cc2)cc1)C(=O)Nc1ccc(CCCc2n[nH]c3c(Cl)c(C)nn23)cc1 (stereo not drawn) [Coupler C-1] | – | – | – | +0.07 | +0.06 | +0.05 | 89.5 | 553 | soluble | soluble | insoluble
5 | CCCCCCCCCCCCC(Oc1ccc(O)c(C(C)(C)C)c1)C(=O)Nc1ccc(Cl)c(NC2=NN(c3c(Cl)cc(Cl)cc3Cl)C(=O)C2)c1 (stereo not drawn) [Coupler C-3] | – | – | – | -0.04 | -0.09 | -0.08 | 82 | 544.5 | – | – | –
6 | CCCCCCCCCCC(Oc1ccc(S(=O)(=O)c2ccc(O)cc2)cc1)C(=O)Nc1ccc(Cl)c(NC2=NN(c3c(Cl)cc(Cl)cc3Cl)C(=O)C2)c1 (stereo not drawn) [Coupler C-4] | – | – | – | – | – | – | 92 | 545.5 | – | – | –
